Assay results as given in patent publication US12371454B2, “Cyclic peptide compound having Kras inhibitory action” (priority 2019, dated 2025).
pIC50: −log10 of the molar value. Starred links: 1 amine or outer side, 2 acyl side, 3 side chain; linkers in the order of their positions; H or OH if unused. Positions of bridges follow the written chain, without caps; N, C: chain ends. Non-standard residues stand in square brackets, D forms with d. Residues, ends and D or L forms follow the SMILES beside them. *: point of attachment. hPhe(3-Cl-4-CF3) = N[C@@H](CCc1ccc(C(F)(F)F)c(Cl)c1)C(=O)O; hPhe(3-F,4-CF3) = N[C@@H](CCc1ccc(C(F)(F)F)c(F)c1)C(=O)O; NMePhe(4-Cl) = CN[C@@H](Cc1ccc(Cl)cc1)C(=O)O; NMePhe(4-Me) = CN[C@@H](Cc1ccc(C)cc1)C(=O)O; X72 = COc1ccc(CC[C@H](N[*:1])C(=O)[*:2])cn1; NMeNle(6-CHF2) = CN[C@@H](CCCCC(F)F)C(=O)O; NMeAla(cPent) = CN[C@@H](CC1CCCC1)C(=O)O; NMeGly(cPent) = CN[C@H](C(=O)O)C1CCCC1; NMeGly(cBu) = CN[C@H](C(=O)O)C1CCC1; NMeCha = CN[C@@H](CC1CCCCC1)C(=O)O; cisHyp = O=C(O)[C@@H]1C[C@H](O)CN1; Hyp = O=C(O)[C@@H]1C[C@@H](O)CN1; NMeChg = CN[C@H](C(=O)O)C1CCCCC1; X61 = O=C(CN(CC1COC1)[*:1])[*:2]; NMeD = CN[C@@H](CC(=O)O)C(=O)O; NMeL = CN[C@@H](CC(C)C)C(=O)O; NMeNle = CCCC[C@H](NC)C(=O)O; NMeV = CN[C@H](C(=O)O)C(C)C; d(β3hA) = C[C@@H](N)CC(=O)O; Azetidin(1-yl) = C1CN(*)C1; NMeS = CN[C@@H](CO)C(=O)O; Morpholide = C1CN(*)CCO1; NMeA = CN[C@@H](C)C(=O)O; Piperidide = C1CCN(*)CC1; Pyrrolidide = C1CCN(*)C1; dNMeA = CN[C@H](C)C(=O)O; Ac5c = NC1(C(=O)O)CCCC1; Aze = O=C(O)[C@@H]1CCN1; Ethyl(2,2-F2) = FC(F)C*; Aib = CC(C)(N)C(=O)O; X27 = Clc1ccccc1C*; Sar = CNCC(=O)O; Propyl = CCC*

The compounds below were run on Human pancreatic cancer cell line AsPC-1 (assay: Measurement of AsPC-1 cell growth inhibition (AsPC-1 CGI)). Conditions: 96 h.
Assay type: cell-based
Summary of the method: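 AsPC-1 cells in 15% FBS RPMI-1640 were exposed to test compound for 96 hours at 37° C, with CellTiter-Glo as endpoint.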

SMILES	pIC50
CC[C@H](C)[C@@H]1NC(=O)[C@H](CC(C)C)N(C)C(=O)C[C@@H](C)NC(=O)[C@H](C2CCCC2)N(C)C(=O)C2(CCCC2)NC(=O)[C@@H]2CCCN2C(=O)[C@H](CCc2ccc(C(F)(F)F)c(Cl)c2)NC(=O)[C@@H](C)N(C)C(=O)[C@H](Cc2ccc(C)cc2)N(C)C(=O)[C@@H]2CCN2C(=O)[C@H](C)N(C)C1=O [Compound 1504] (cyclo([Ac5c][NMeGly(cPent)][d(β3hA)][NMeL]I[NMeA][Aze][NMePhe(4-Me)][dNMeA][hPhe(3-Cl-4-CF3)]P))	6.30 to 7.00
CC[C@H](C)[C@@H]1NC(=O)[C@H](CC(C)C)N(C)C(=O)C[C@@H](C(=O)N2CCCCC2)N(C)C(=O)[C@H](C2CCCC2)N(C)C(=O)C2(CCCC2)NC(=O)[C@@H]2CCCN2C(=O)[C@H](CCc2ccc(OC)nc2)NC(=O)CN(C)C(=O)[C@H](CC2CCCCC2)N(C)C(=O)[C@@H]2CCN2C(=O)[C@H](C)N(C)C1=O [Compound 2084] ([NMeL]I[NMeA][Aze][NMeCha][Sar][X72]P[Ac5c][NMeGly(cPent)][NMeD]-Piperidide; lactam N-11)	6.30 to 7.00
CC[C@H](C)[C@@H]1NC(=O)[C@H](CC(C)C)N(C)C(=O)C[C@@H](C(=O)N2CCCCC2)N(C)C(=O)[C@H](C2CCCCC2)N(C)C(=O)C2(CCCC2)NC(=O)[C@@H]2C[C@H](OCC(F)F)CN2C(=O)[C@H](CCc2ccc(C(F)(F)F)c(Cl)c2)NC(=O)CN(C)C(=O)[C@H](CC2CCCCC2)N(C)C(=O)CN(C)C(=O)CN(C)C1=O [Compound 2123] ([NMeL]I[Sar][Sar][NMeCha][Sar][hPhe(3-Cl-4-CF3)][cisHyp](Ethyl(2,2-F2))[Ac5c][NMeChg][NMeD]-Piperidide; lactam N-11)	6.30 to 7.00
CCCC[C@H]1C(=O)N(C)CC(=O)N[C@@H](CCc2ccc(C(F)(F)F)c(Cl)c2)C(=O)N2CCC[C@H]2C(=O)NC2(CCCC2)C(=O)N(C)[C@@H](C(C)C)C(=O)N(C)[C@H](C(=O)N2CCCCC2)CC(=O)N(C)[C@@H](CC(C)C)C(=O)N[C@@H]([C@@H](C)CC)C(=O)N(C)[C@@H](C)C(=O)N2CC[C@H]2C(=O)N1C [Compound 1712] ([NMeL]I[NMeA][Aze][NMeNle][Sar][hPhe(3-Cl-4-CF3)]P[Ac5c][NMeV][NMeD]-Piperidide; lactam N-11)	6.30 to 7.00
CCCOC[C@H]1C(=O)N(C)CC(=O)N[C@@H](CCc2ccc(C(F)(F)F)c(Cl)c2)C(=O)N2CCC[C@H]2C(=O)NC2(CCCC2)C(=O)N(C)[C@@H](C(C)C)C(=O)N(C)[C@H](C(=O)N2CCCCC2)CC(=O)N(C)[C@@H](CC(C)C)C(=O)N[C@@H]([C@@H](C)CC)C(=O)N(C)[C@@H](C)C(=O)N2CC[C@H]2C(=O)N1C [Compound 1646] ([NMeL]I[NMeA][Aze][NMeS](Propyl)[Sar][hPhe(3-Cl-4-CF3)]P[Ac5c][NMeV][NMeD]-Piperidide; lactam N-11)	6.30 to 7.00
CC[C@H](C)[C@@H]1NC(=O)[C@H](CC(C)C)N(C)C(=O)C[C@@H](C(=O)N(C)C)N(C)C(=O)[C@H](C2CCCC2)N(C)C(=O)C2(CCCC2)NC(=O)[C@@H]2CCCN2C(=O)[C@H](CCc2ccc(C(F)(F)F)c(F)c2)NC(=O)CN(C)C(=O)[C@H](CC2CCCCC2)N(C)C(=O)[C@@H]2CCN2C(=O)[C@H](C)NC1=O [Compound 1164] ([NMeL]IA[Aze][NMeCha][Sar][hPhe(3-F,4-CF3)]P[Ac5c][NMeGly(cPent)][NMeD]-NMe2; lactam N-11)	7.30 to 7.70
CC[C@H](C)[C@@H]1NC(=O)[C@H](CC(C)C)N(C)C(=O)C[C@@H](C(=O)N2CCCCC2)N(C)C(=O)[C@H](CC(C)C)N(C)C(=O)C2(CCCC2)NC(=O)[C@@H]2C[C@@H](OCc3ccccc3Cl)CN2C(=O)[C@H](CCc2ccc(C(F)(F)F)c(F)c2)NC(=O)CN(C)C(=O)[C@H](CC2CCCCC2)N(C)C(=O)CN(C)C(=O)CN(C)C1=O [Compound 2138] ([NMeL]I[Sar][Sar][NMeCha][Sar][hPhe(3-F,4-CF3)][Hyp](X27)[Ac5c][NMeL][NMeD]-Piperidide; lactam N-11)	6.30 to 7.00
CC[C@H](C)[C@@H]1NC(=O)[C@H](CC(C)C)N(C)C(=O)C[C@@H](C(=O)N2CCOCC2)N(C)C(=O)[C@H](C(C)C)N(C)C(=O)C2(CCCC2)NC(=O)[C@@H]2CCCN2C(=O)[C@H](CCc2ccc(C(F)(F)F)c(Cl)c2)NC(=O)CN(C)C(=O)[C@H](CC2CCCCC2)N(C)C(=O)[C@@H]2CCN2C(=O)CN(C)C1=O [Compound 1758] ([NMeL]I[Sar][Aze][NMeCha][Sar][hPhe(3-Cl-4-CF3)]P[Ac5c][NMeV][NMeD]-Morpholide; lactam N-11)	6.30 to 7.00
CCCOC[C@H]1C(=O)N(C)CC(=O)N[C@@H](CCc2ccc(C(F)(F)F)c(F)c2)C(=O)N2CCC[C@H]2C(=O)NC2(CCCC2)C(=O)N(C)[C@@H](C2CCCC2)C(=O)N(C)[C@H](C(=O)N2CCCCC2)CC(=O)N(C)[C@@H](CC(C)C)C(=O)N[C@@H]([C@@H](C)CC)C(=O)N(C)[C@@H](C)C(=O)N2CC[C@H]2C(=O)N1C [Compound 1029] ([NMeL]I[NMeA][Aze][NMeS](Propyl)[Sar][hPhe(3-F,4-CF3)]P[Ac5c][NMeGly(cPent)][NMeD]-Piperidide; lactam N-11)	7.30 to 7.70
CC[C@H](C)[C@@H]1NC(=O)[C@H](CC(C)C)N(C)C(=O)C[C@@H](C(=O)N2CCCCC2)N(C)C(=O)[C@H](C2CCCCC2)N(C)C(=O)C2(CCCC2)NC(=O)CN(CC2COC2)C(=O)[C@H](CCc2ccc(C(F)(F)F)c(Cl)c2)NC(=O)CN(C)C(=O)[C@H](CC2CCCCC2)N(C)C(=O)CN(C)C(=O)CN(C)C1=O [Compound 2031] ([NMeL]I[Sar][Sar][NMeCha][Sar][hPhe(3-Cl-4-CF3)][X61][Ac5c][NMeChg][NMeD]-Piperidide; lactam N-11)	6.30 to 7.00
CC[C@H](C)[C@@H]1NC(=O)[C@H](CC(C)C)N(C)C(=O)C[C@@H](C(=O)N2CCCCC2)N(C)C(=O)[C@H](C(C)C)N(C)C(=O)C2(CCCC2)NC(=O)[C@@H]2CCCN2C(=O)[C@H](CCc2ccc(C(F)(F)F)c(Cl)c2)NC(=O)CN(C)C(=O)[C@H](C2CCC2)N(C)C(=O)[C@@H]2CCN2C(=O)[C@H](C)N(C)C1=O [Compound 446] ([NMeL]I[NMeA][Aze][NMeGly(cBu)][Sar][hPhe(3-Cl-4-CF3)]P[Ac5c][NMeV][NMeD]-Piperidide; lactam N-11)	6.30 to 7.00
CC[C@H](C)[C@@H]1NC(=O)[C@H](CC(C)C)N(C)C(=O)C[C@@H](C)NC(=O)[C@H](C(C)C)N(C)C(=O)C2(CCCC2)NC(=O)[C@@H]2CCCN2C(=O)[C@H](CCc2ccc(C(F)(F)F)c(Cl)c2)NC(=O)CN(C)C(=O)[C@H](Cc2ccc(Cl)cc2)N(C)C(=O)[C@@H]2CCN2C(=O)CN(C)C1=O [Compound 207] (cyclo([Ac5c][NMeV][d(β3hA)][NMeL]I[Sar][Aze][NMePhe(4-Cl)][Sar][hPhe(3-Cl-4-CF3)]P))	6.30 to 7.00
CC[C@H](C)[C@@H]1NC(=O)[C@H](CC(C)C)N(C)C(=O)C[C@@H](C(=O)N2CCCC2)NC(=O)[C@H](C2CCCC2)N(C)C(=O)C2(CCCC2)NC(=O)[C@@H]2CCCN2C(=O)[C@H](CCc2ccc(C(F)(F)F)c(Cl)c2)NC(=O)CN(C)C(=O)[C@H](CC2CCCCC2)N(C)C(=O)[C@@H]2CCN2C(=O)[C@H](C)N(C)C1=O [Compound 700] ([NMeL]I[NMeA][Aze][NMeCha][Sar][hPhe(3-Cl-4-CF3)]P[Ac5c][NMeGly(cPent)]D-Pyrrolidide; lactam N-11)	6.30 to 7.00
CC[C@H](C)[C@@H]1NC(=O)[C@H](CCCCC(F)F)N(C)C(=O)C[C@@H](C(=O)N2CCCCC2)N(C)C(=O)[C@H](C(C)C)N(C)C(=O)C2(CCCC2)NC(=O)[C@@H]2CCCN2C(=O)[C@H](CCc2ccc(C(F)(F)F)c(Cl)c2)NC(=O)CN(C)C(=O)[C@H](CC2CCCCC2)N(C)C(=O)[C@@H]2CCN2C(=O)[C@H](C)N(C)C1=O [Compound 94] ([NMeNle(6-CHF2)]I[NMeA][Aze][NMeCha][Sar][hPhe(3-Cl-4-CF3)]P[Ac5c][NMeV][NMeD]-Piperidide; lactam N-11)	6.30 to 7.00
CC[C@H](C)[C@@H]1NC(=O)[C@H](C(C)C)N(C)C(=O)C[C@@H](C)NC(=O)[C@H](CC(C)C)N(C)C(=O)C(C)(C)NC(=O)[C@H](CC(C)C)N(C)C(=O)[C@H](CCc2ccc(C(F)(F)F)c(Cl)c2)NC(=O)CN(C)C(=O)[C@H](Cc2ccc(Cl)cc2)N(C)C(=O)CN(C)C(=O)CN(C)C1=O [Compound 740] (cyclo([Aib][NMeL][d(β3hA)][NMeV]I[Sar][Sar][NMePhe(4-Cl)][Sar][hPhe(3-Cl-4-CF3)][NMeL]))	6.30 to 7.00
CC[C@H](C)[C@@H]1NC(=O)[C@H](CC(C)C)N(C)C(=O)C[C@@H](C(=O)N2CCCCC2)N(C)C(=O)[C@H](C2CCCCC2)N(C)C(=O)C2(CCCC2)NC(=O)[C@@H]2C[C@@H](O)CN2C(=O)[C@H](CCc2ccc(C(F)(F)F)c(Cl)c2)NC(=O)CN(C)C(=O)[C@H](CC2CCCCC2)N(C)C(=O)CN(C)C(=O)CN(C)C1=O [Compound 1376, (3S,9S,18S,21S,25S,28S,34S,36R)-3-[2-[3-chloro-4-(trifluoromethyl)phenyl]ethyl]-28-cyclohexyl-9-(cyclohexylmethyl)-36-hydroxy-21-isobutyl-7,10,13,16,22,26,29-heptamethyl-18-[(1S)-1-methylpropyl]-25-(piperidine-1-carbonyl)spiro[1,4,7,10,13,16,19,22,26,29,32-undecazabicyclo[32.3.0]heptatriacontane-31,1′-cyclopentane]-2,5,8,11,14,17,20,23,27,30,33-undecone] ([NMeL]I[Sar][Sar][NMeCha][Sar][hPhe(3-Cl-4-CF3)][Hyp][Ac5c][NMeChg][NMeD]-Piperidide; lactam N-11)	6.30 to 7.00
CC[C@H](C)[C@@H]1NC(=O)[C@H](CC2CCCC2)N(C)C(=O)C[C@@H](C(=O)N2CCC2)N(C)C(=O)[C@H](C2CCCC2)N(C)C(=O)C2(CCCC2)NC(=O)[C@@H]2CCCN2C(=O)[C@H](CCc2ccc(C(F)(F)F)c(Cl)c2)NC(=O)CN(C)C(=O)[C@H](CC2CCCCC2)N(C)C(=O)[C@@H]2CCN2C(=O)[C@H](C)NC1=O [Compound 921] ([NMeAla(cPent)]IA[Aze][NMeCha][Sar][hPhe(3-Cl-4-CF3)]P[Ac5c][NMeGly(cPent)][NMeD]-{Azetidin(1-yl)}; lactam N-11)	7.30 to 7.70
